Laboratory results as given in patent US20200246441A1, “COMPOSITIONS AND METHODS FOR AUTOIMMUNE DISEASE TREATMENT” (AMRITA VISHWA VIDYAPEETHAM, priority 2016, published 2020).
“Also recorded” adds a separate entry of the source. Non-standard residues stand in square brackets, D forms with d. No end group written: not given here. βF = beta phenylalanine (beta-amino acid)

B1: Ova: control silica nanoparticles (500 nm or 200 nm) coated with ovalbumin (conjugate)
chain: GSIGAASMEFCFDVFKELKVHHANENIFYCPIAIMSALAMVYLGAKDSTRTQINKVVRFDKLPGFGDSIEAQCGTSVNVHSSLRDILNQITKPNDVYSFSLASRLYAEERYPILPEYLQCVKELYRGGLEPINFQTAADQARELINSWVESQTNGIIRNVLQPSSVDSQTAMVLVNAIVFKGLWEKAFKDEDTQAMPFRVTEQESKPVQMMYQIGLFRVASMASEKMKILELPFASGTMSMLVLLPDEVSGLEQLESIINFEKLTEWTSSNVMEERKIKVYLPRMKMEEKYNLTSVLMAMGITDVFSSSANLSGISSAESLKISQAVHAAHAEINEAGREVVGSAEAGVDAASVSEEFRADHPFLFCIKHIATNAVLFFGRCVSP

What was measured:
NOD/Lt EAE mice [1] = assay: Histological analysis of CNS tissue of NOD/Lt EAE mice; type: in vivo, mouse; parameters: key to Axonal damage: 0 = no axonal pathology, 3 = severe axonal pathology; key to Demyelination score: 0 = no demyelination, 3 = severe demyelination; conditions: 200 nm silica peptide nanoparticles, mean ± SEM
Procedure: (§1) For histological analysis of CNS tissue, the brain and spinal cord were dissected from mice then fixed in 10% formalin (Sigma) for 24-48 h. Tissue was then processed and embedded in paraffin wax. Serial sections (5 μm) were cut from paraffin-embedded tissues and stained with hematoxylin and eosin, luxol fast blue and Bielschowsky silver impregnation to assess inflammation, demyelination and axonal damage, respectively. Sections were scored blind for semi-quantitative histological analysis of inflammation as follows: 0, no inflammation: 1, cellular infiltrate only in the perivascular areas and meninges; 2, mild cellular infiltrate in parenchyma: 3, moderate cellular infiltrate in parenchyma; 4, severe cellular infiltrate in parenchyma. Demyelination and axonal pathology were assessed by pale staining and scored blind as follows: 0, no demyelination/axonal pathology: 1, mild demyelination/axonal pathology; 2, moderate demyelination-axonal pathology; 3, severe demyelination/axonal pathology.

NOD/Lt EAE mice [2] = assay: EAE induction and clinical scoring, recombinant mouse MOG-induced EAE in NOD/Lt mice (relapsing remitting model); type: in vivo; conditions: for Disease incidence / Mortality / Cumulative score / Day disease onset / Maximum score / Score at termination: 200 nm silica peptide nanoparticles, NOD/Lt; for Disease incidence / Mortality: fraction of total; for Cumulative score / Day disease onset / Maximum score / Score at termination: mean ± SEM
C57Bl/6 EAE mice [3] = assay: Histological analysis of CNS tissue of C57Bl/6 EAE mice; type: in vivo, mouse; parameters: key to Axonal damage: 0 = no axonal pathology, 3 = severe axonal pathology; key to Demyelination score: 0 = no demyelination, 3 = severe demyelination; conditions: for Axonal damage / Demyelination score / Inflammation score: mean ± SEM; for CNS inflammation, demyelination and axonal damage: 500 nm NPs, versus bare NPs or scrambled MOG37-52 NPs
Procedure: as §1

[4] = test system: MOG-specific T-cells (spleen cells from MOG T-cell receptor transgenic (2D2) mice); assay: Proliferation assay, 3H-thymidine incorporation; type: cell-based, mouse; conditions: for T-cell proliferation (proliferative response): free peptide or 500 nm silica NPs, up to 8 ug/ml
Procedure: Spleens were dissected from MOG T-cell receptor transgenic mice expressing the transgenic V3.2α/Vβ11 T-cell receptor specific for MOG35-55 peptide ([…]) in the context of 1-A^b. Single cell suspensions were prepared in complete RPMI medium containing 10% heat inactivated FBS, 2 mM L-glutamine, 100 U/ml penicillin, 100 μg/ml streptomycin, 50 μM 2-mercaptoethanol and 1 mM sodium pyruvate (Sigma). Following red blood cell lysis, splenocytes were seeded in triplicate in 96-well, flat bottom microtiter plates (Nunc) at a concentration of 2.5×10^5 cells per well. Splenocytes were cultured in medium alone or in the presence of increasing doses of MOG35-55 or nanoparticles. Cells were incubated at 37° C. for 72 hr with the addition of 1 μCi/well [3H]-thymidine (Perkin Elmer) for the last 18 hr of culture. Cells were harvested onto filter mats (Perkin Elmer) and incorporated radioactive nucleic acids counted using a Top Count NXT Scintillation Counter (Packard Biosciences).

C57Bl/6 EAE mice [5] = assay: EAE induction and clinical scoring, MOG35-55-induced EAE in C57Bl/6 mice (chronic progressive model); type: in vivo, mouse; conditions: for Disease incidence / Mortality: fraction of total; for Cumulative score / Day disease onset / Maximum score / Score at termination: mean ± SEM; for daily mean clinical score compared to controls: treatment prior to induction of EAE
EAE = conditions: administered as free peptide; cited from earlier work
[6] = 200 nm silica peptide nanoparticles
[7] = 500 nm silica peptide nanoparticles
[8] = 500 nm silica peptide nanoparticles, i.v. day -7 and -1

| Molecule | Axonal damage (NOD/Lt EAE mice [1]) | Demyelination score (NOD/Lt EAE mice [1]) | Inflammation score (NOD/Lt EAE mice [1]) | Disease incidence (NOD/Lt EAE mice [2]) | Mortality (NOD/Lt EAE mice [2]) | Cumulative score (NOD/Lt EAE mice [2]) | Day disease onset (NOD/Lt EAE mice [2]) | Maximum score (NOD/Lt EAE mice [2]) | Score at termination (NOD/Lt EAE mice [2]) | Axonal damage (C57Bl/6 EAE mice [3]; [6]) | Axonal damage (C57Bl/6 EAE mice [3]; [7]) | Demyelination score (C57Bl/6 EAE mice [3]; [7]) | Inflammation score (C57Bl/6 EAE mice [3]; [7]) | T-cell proliferation (proliferative response) [4] | Disease incidence (C57Bl/6 EAE mice [5]; [8]) | Mortality (C57Bl/6 EAE mice [5]; [7]) | Cumulative score (C57Bl/6 EAE mice [5]; [7]) | Day disease onset (C57Bl/6 EAE mice [5]; [7]) | Maximum score (C57Bl/6 EAE mice [5]; [7]) | Score at termination (C57Bl/6 EAE mice [5]; [7]) | also measured |
| --- | --- | --- | --- | --- | --- | --- | --- | --- | --- | --- | --- | --- | --- | --- | --- | --- | --- | --- | --- | --- | --- |
| ScrMOG37-52: control silica nanoparticles (500 nm or 200 nm) coated with scrambled MOG37-52 peptide RSVLVPSRWRHFYGVY [reference compound] | 2.583 ± 0.2007 | 2.583 ± 0.2007 | 3.583 ± 0.2713 | 6/6 | 0/6 | 58.5 ± 2.772 | 13.00 ± 0.4472 | 3.583 ± 0.3005 | 3.333 ± 0.3333 | 2.188 ± 0.2302 | 2.367 ± 0.2472 | 2.333 ± 0.2108 | 2.917 ± 0.2007 | not capable of stimulating T-cell proliferation | 6/6 | 0/6 | 52.5 ± 2.053 | 12.67 ± 0.4216 | 3.00 ± 0.0000 | 1.833 ± 0.2108 | Demyelination score (C57Bl/6 EAE mice [3]; [6]): 2.063 ± 0.2745; Inflammation score (C57Bl/6 EAE mice [3]; [6]): 2.688 ± 0.3889; Disease incidence (C57Bl/6 EAE mice [5]; [6]): 8/8; Mortality (C57Bl/6 EAE mice [5]; [6]): 0/8; Cumulative score (C57Bl/6 EAE mice [5]; [6]): 52.50 ± 4.621; Day disease onset (C57Bl/6 EAE mice [5]; [6]): 13.38 ± 0.9051; Maximum score (C57Bl/6 EAE mice [5]; [6]): 3.313 ± 0.2825; Score at termination (C57Bl/6 EAE mice [5]; [6]): 2.313 ± 0.4525 |
| MOG37-52: silica nanoparticles coated with mouse MOG37-52 peptide VGWYRSPFSRVVHLYR; 500 nm in Table 1, 200 nm in Tables 2 and 3 | 2.833 ± 0.1667 | 2.917 ± 0.0833 | 4.167 ± 0.1667 | 6/6 | 0/6 | 30.50 ± 3.266^∧∧ ^## | 17.33 ± 2.23 | 2.667 ± 0.1667^∧ | 2.25 ± 0.2814^∧ | 1.35 ± 0.1833 # ^∧∧∧ | 1.208 ± 0.2275 ^∧∧ | 0.833 ± 0.8333 ^** ∧∧∧∧ | 1.542 ± 0.2275 ^* ∧∧ | comparable proliferative response; also recorded: comparable to the MOG37-52 peptide | 6/6 | 0/6 | 26.00 ± 8.039 ^** | 17.17 ± 2.151 | 2.00 ± 0.3873 | 1.083 ± 0.3270 | disease severity (NOD/Lt EAE mice [2]; 200 nm NPs, NOD/Lt mice): significantly reduced disease severity; axonal damage compared to bear, scrambled MOG37-52 or ovalbumin nanoparticles (C57Bl/6 EAE mice [3]; 200 nm silica nanoparticles): significantly reduced axonal damage; inflammation compared to bear nanoparticles (C57Bl/6 EAE mice [3]; 200 nm silica nanoparticles): significantly reduced inflammation; Demyelination score (C57Bl/6 EAE mice [3]; [6]): 1.85 ± 0.2242; Inflammation score (C57Bl/6 EAE mice [3]; [6]): 2.275 ± 0.3772^∧; CNS inflammation, demyelination and axonal damage (C57Bl/6 EAE mice [3]): reduction in CNS inflammation, demyelination and axonal damage; also recorded: significantly reduced inflammation, demyelination and axonal damage; proliferative response ([4]; 200 nm NPs): did not induce a proliferative response that was above background levels; effect on clinical disease (C57Bl/6 EAE mice [5]; 200 nm NPs, C57BL/6 mice): significant effect on clinical disease; Disease incidence (C57Bl/6 EAE mice [5]; [6]): 10/10; Mortality (C57Bl/6 EAE mice [5]; [6]): 0/10; Cumulative score (C57Bl/6 EAE mice [5]; [6]): 33.05 ± 2.086 ∧∧∧∧; Day disease onset (C57Bl/6 EAE mice [5]; [6]): 15.70 ± 1.334; Maximum score (C57Bl/6 EAE mice [5]; [6]): 2.50 ± 0.1667^∧; Score at termination (C57Bl/6 EAE mice [5]; [6]): 1.45 ± 0.2930^∧∧∧; daily mean clinical score compared to controls (C57Bl/6 EAE mice [5]; 500 nm NPs): significant reduction |
| VGWYRSPβFSRVVHLYR [MOG 44βF] | – | – | – | – | – | – | – | – | – | – | – | – | – | – | – | – | – | – | – | – | dosage at which free peptide suppressed EAE (EAE): 800 µg |
| MOG44BF: 500 nm silica nanoparticles coated with MOG44βF peptide VGWYRSPβFSRVVHLYR (VGWYRSP[βF]SRVVHLYR; also: coated on 500 nm silica nanoparticles) | – | – | – | – | – | – | – | – | – | – | 0.5833 ± 0.2007 ∧∧∧∧ | 0.375 ± 0.08539^### *** ∧∧∧∧ | 0.7917 ± 0.2694^### *** ∧∧∧∧ | – | 2/6 | 0/6 | 5.417 ± 3.967 ^**** ∧∧∧ | 29.17 ± 3.710^++ ^### *** ∧∧∧ | 0.4167 ± 0.3270^++ ^*** ∧∧∧ | 0.1667 ± 0.1054 # ^∧ | CNS inflammation, demyelination and axonal damage (C57Bl/6 EAE mice [3]): reduction in CNS inflammation, demyelination and axonal damage; also recorded: significantly reduced inflammation, demyelination and axonal damage; T-cell proliferation (proliferative response) ([4]; listed as MOG440F): not capable of stimulating T-cell proliferation; T-cell proliferation (proliferative response) ([4]; listed as MOG441F): did not induce a robust proliferative response; therapeutic effect compared to MOG37-52 coated NPs (onset, disease severity) (C57Bl/6 EAE mice [5]; 500 nm NPs): more significant therapeutic effect; daily mean clinical score compared to controls (C57Bl/6 EAE mice [5]; 500 nm NPs): significant reduction |
| MEVGWYRSPFSRVVHLYRNGK [MOG35-55, encephalitogenic mouse MOG peptide, free peptide, reference compound] | – | – | – | – | – | – | – | – | – | – | – | – | – | robust proliferation response | – | – | – | – | – | – | – |
| B1 | 2.60 ± 0.1871 | 2.60 ± 0.1871 | 4.00 ± 0.00 | 6/6 | 1/6 | 46.75 ± 4.656 | 14.17 ± 1.327 | 3.583 ± 0.3005 | 3.167 ± 0.4014 | 2.50 ± 0.2236 | 2.333 ± 0.1667 | 2.333 ± 0.1667 | 2.833 ± 0.1667 | not capable of stimulating T-cell proliferation | 4/4 | 1/4 | 69.38 ± 11.77 | 10.75 ± 0.8539 | 3.625 ± 0.4732 | 2.75 ± 0.7773 | Demyelination score (C57Bl/6 EAE mice [3]; [6]): 2.40 ± 0.3674; Inflammation score (C57Bl/6 EAE mice [3]; [6]): 2.80 ± 0.4899; Disease incidence (C57Bl/6 EAE mice [5]; [6]): 5/5; Mortality (C57Bl/6 EAE mice [5]; [6]): 0/5; Cumulative score (C57Bl/6 EAE mice [5]; [6]): 62.00 ± 4.987; Day disease onset (C57Bl/6 EAE mice [5]; [6]): 10.60 ± 0.9274; Maximum score (C57Bl/6 EAE mice [5]; [6]): 3.3 ± 0.2000; Score at termination (C57Bl/6 EAE mice [5]; [6]): 2.60 ± 0.3317 |
